Experimental data as given in the supplement of paper PMC13380429.

Assays:
[1] = system: A549-ACE2 infected with SARS-CoV-2; assay: cell count relative to DMSO; higher = less toxic; conditions: 24 h
Caco-2 [2] = assay: cell viability relative to DMSO; higher = less toxic; conditions: 72 h
Calu-3 [3] = assay: as above; conditions: 72 h
HepG2 [4] = assay: as above; conditions: 72 h
U2OS [5] = assay: as above; conditions: 72 h
Vero E6 [6] = assay: as above; conditions: 72 h
[7] = system: A549-ACE2 infected with SARS-CoV-2; assay: SARS-CoV-2 infection rate relative to DMSO; higher = more infection; conditions: 24 h
A549-ACE2 [8] = assay: phospholipidosis EC50; higher = less potent phospholipidosis inducer
A549-ACE2 [9] = assay: drug-induced phospholipidosis relative to tamoxifen; higher = more phospholipidosis
[10] = system: A549-ACE2 infected with SARS-CoV-2; assay: morphology score (similarity to uninfected cells); higher = more like uninfected cells; conditions: 24 h
Caco-2 [11] = assay: relative viability EC50 (midpoint between 100% and the lowest measured viability); higher = less toxic; conditions: 72 h
Calu-3 [12] = assay: as above; conditions: 72 h
HepG2 [13] = assay: as above; conditions: 72 h
Vero E6 [14] = assay: as above; conditions: 72 h
Caco-2 [15] = assay: drug sensitivity score (DSS) for viability; higher = more toxic; extreme values may be limits of the assay; conditions: 72 h
Calu-3 [16] = assay: as above; conditions: 72 h
HepG2 [17] = assay: as above; conditions: 72 h
U2OS [18] = assay: as above; conditions: 72 h
Vero E6 [19] = assay: as above; conditions: 72 h
U2OS [20] = assay: relative viability EC50 (midpoint between 100% and the lowest measured viability); higher = less toxic; conditions: 72 h

COc1ccc(NC(=O)c2ccc(-c3ccc(-c4noc(C)n4)cc3C)cc2)cc1N1CCN(C)CC1
Conditions | SARS-CoV-2 infection rate [%] | cell count [%] | cell viability [%] | morphology score | phospholipidosis EC50 [µM]
A549-ACE2 [8], 24 h | – | – | – | – | 0.719
A549-ACE2 [8], 48 h | – | – | – | – | 0.984
A549-ACE2 [8], 72 h | – | – | – | – | 1.27
Caco-2 [2], 1 nM | – | – | 105 | – | –
Caco-2 [2], 10 nM | – | – | 92.5 | – | –
Caco-2 [2], 100 nM | – | – | 98.8 | – | –
Caco-2 [2], 1000 nM | – | – | 94.4 | – | –
Caco-2 [2], 10000 nM | – | – | 42.8 | – | –
Calu-3 [3], 1 nM | – | – | 110 | – | –
Calu-3 [3], 10 nM | – | – | 109 | – | –
Calu-3 [3], 100 nM | – | – | 99.2 | – | –
Calu-3 [3], 1000 nM | – | – | 102 | – | –
Calu-3 [3], 10000 nM | – | – | 7.9 | – | –
HepG2 [4], 1 nM | – | – | 97.5 | – | –
HepG2 [4], 10 nM | – | – | 109 | – | –
HepG2 [4], 100 nM | – | – | 98.9 | – | –
HepG2 [4], 1000 nM | – | – | 103 | – | –
HepG2 [4], 10000 nM | – | – | 19.1 | – | –
U2OS [5], 1 nM | – | – | 103 | – | –
U2OS [5], 10 nM | – | – | 102 | – | –
U2OS [5], 100 nM | – | – | 106 | – | –
U2OS [5], 1000 nM | – | – | 99.3 | – | –
U2OS [5], 10000 nM | – | – | 54.2 | – | –
Vero E6 [6], 1 nM | – | – | 106 | – | –
Vero E6 [6], 10 nM | – | – | 101 | – | –
Vero E6 [6], 100 nM | – | – | 105 | – | –
Vero E6 [6], 1000 nM | – | – | 96.6 | – | –
Vero E6 [6], 10000 nM | – | – | 31.6 | – | –
[1], 0.1 µM | – | 97 | – | – | –
[1], 0.3 µM | – | 104 | – | – | –
[1], 1 µM | – | 109 | – | – | –
[1], 3 µM | – | 117 | – | – | –
[7], 0.1 µM | 106 | – | – | – | –
[7], 0.3 µM | 99 | – | – | – | –
[7], 1 µM | 85 | – | – | – | –
[7], 3 µM | 31 | – | – | – | –
[10], 0.1 µM | – | – | – | -0.16 | –
[10], 0.3 µM | – | – | – | 0.15 | –
[10], 1 µM | – | – | – | 0.46 | –
[10], 3 µM | – | – | – | 0.78 | –

drug-induced phospholipidosis [%], A549-ACE2 [9]
Conditions | 0.3 µM | 0.833333 µM | 3.33333 µM | 6.66667 µM | 10 µM | 30 µM
24 h | 2.12 | 35 | 61.8 | 56.7 | 35.2 | 28.3
48 h | 4.59 | 17.3 | 79.1 | 76.8 | 56.3 | –
72 h | 4.03 | 12.8 | 79.8 | 80.8 | – | –

Conditions | drug sensitivity score | relative viability EC50 [µM]
Caco-2 [11] | – | 2.36
Caco-2 [15] | 4 | –
Calu-3 [12] | – | 3.27
Calu-3 [16] | 5 | –
HepG2 [13] | – | 3.38
HepG2 [17] | 4.2 | –
U2OS [18] | 2.5 | –
Vero E6 [14] | – | 2.79
Vero E6 [19] | 4.2 | –

C[C@@H](Oc1cc(-n2cnc3ccc(CN4CCN(C)CC4)cc32)sc1C(N)=O)c1ccccc1C(F)(F)F
Conditions | SARS-CoV-2 infection rate [%] | cell count [%] | cell viability [%] | morphology score | phospholipidosis EC50 [µM]
A549-ACE2 [8], 24 h | – | – | – | – | 2.9
Caco-2 [2], 1 nM | – | – | 96.8 | – | –
Caco-2 [2], 10 nM | – | – | 95.2 | – | –
Caco-2 [2], 100 nM | – | – | 67.2 | – | –
Caco-2 [2], 1000 nM | – | – | 62.7 | – | –
Caco-2 [2], 10000 nM | – | – | 68.5 | – | –
Calu-3 [3], 1 nM | – | – | 105 | – | –
Calu-3 [3], 10 nM | – | – | 86.9 | – | –
Calu-3 [3], 100 nM | – | – | 84.5 | – | –
Calu-3 [3], 1000 nM | – | – | 84.8 | – | –
Calu-3 [3], 10000 nM | – | – | 36.1 | – | –
HepG2 [4], 1 nM | – | – | 98.2 | – | –
HepG2 [4], 10 nM | – | – | 101 | – | –
HepG2 [4], 100 nM | – | – | 23.9 | – | –
HepG2 [4], 1000 nM | – | – | 19.4 | – | –
HepG2 [4], 10000 nM | – | – | 8 | – | –
U2OS [5], 1 nM | – | – | 104 | – | –
U2OS [5], 10 nM | – | – | 101 | – | –
U2OS [5], 100 nM | – | – | 67.9 | – | –
U2OS [5], 1000 nM | – | – | 51.8 | – | –
U2OS [5], 10000 nM | – | – | 48.8 | – | –
Vero E6 [6], 1 nM | – | – | 101 | – | –
Vero E6 [6], 10 nM | – | – | 104 | – | –
Vero E6 [6], 100 nM | – | – | 77.2 | – | –
Vero E6 [6], 1000 nM | – | – | 64.6 | – | –
Vero E6 [6], 10000 nM | – | – | 36 | – | –
[1], 0.1 µM | – | 60 | – | – | –
[1], 0.3 µM | – | 55 | – | – | –
[1], 1 µM | – | 61 | – | – | –
[1], 3 µM | – | 62 | – | – | –
[7], 0.1 µM | 104 | – | – | – | –
[7], 0.3 µM | 101 | – | – | – | –
[7], 1 µM | 103 | – | – | – | –
[7], 3 µM | 36 | – | – | – | –
[10], 0.1 µM | – | – | – | 0.01 | –
[10], 0.3 µM | – | – | – | 0.06 | –
[10], 1 µM | – | – | – | 0.19 | –
[10], 3 µM | – | – | – | 0.65 | –

A549-ACE2 [9], 24 h
Conditions | drug-induced phospholipidosis [%]
0.3 µM | 14.3
0.833333 µM | 26.9
3.33333 µM | 156
6.66667 µM | 198
10 µM | 260
30 µM | 246

Conditions | drug sensitivity score | relative viability EC50 [µM]
Caco-2 [15] | 11.1 | –
Calu-3 [12] | – | 1.73
Calu-3 [16] | 5.5 | –
HepG2 [13] | – | 0.054
HepG2 [17] | 25.5 | –
U2OS [18] | 13.3 | –
U2OS [20] | – | 0.0804
Vero E6 [14] | – | 0.444
Vero E6 [19] | 9.3 | –

O=C1NC(=O)C(c2cnc3ccccn23)=C1c1cn2c3c(cc(F)cc13)CN(C(=O)N1CCCCC1)CC2
Conditions | SARS-CoV-2 infection rate, [7] [%] | cell count, [1] [%] | cell viability, Caco-2 [2] [%] | cell viability, Calu-3 [3] [%] | cell viability, HepG2 [4] [%] | cell viability, U2OS [5] [%] | cell viability, Vero E6 [6] [%] | morphology score, [10]
1 nM | – | – | 104 | 101 | 121 | 108 | 105 | –
10 nM | – | – | 109 | 111 | 113 | 112 | 105 | –
100 nM | – | – | 87.3 | 80 | 109 | 99.5 | 95.9 | –
0.3 µM | 114 | 79 | – | – | – | – | – | -0.23
1000 nM | – | – | 70.5 | 68.1 | 94 | 94.2 | 66.1 | –
3 µM | 108 | 75 | – | – | – | – | – | -0.14
10 µM | 92 | 72 | – | – | – | – | – | -0.05
10000 nM | – | – | 47.3 | 61 | 56.7 | 80.3 | 77.9 | –
30 µM | 49 | 50 | – | – | – | – | – | 0.41

A549-ACE2 [9], 24 h
Conditions | drug-induced phospholipidosis [%]
0.3 µM | -5.51
0.833333 µM | -3
3.33333 µM | -2.04
6.66667 µM | -0.59
10 µM | 12.5

Conditions | drug sensitivity score | relative viability EC50 [µM]
Caco-2 [11] | – | 0.624
Caco-2 [15] | 6.7 | –
Calu-3 [16] | 9.5 | –
HepG2 [17] | 3.2 | –
U2OS [18] | 1.3 | –
U2OS [20] | – | > 10
Vero E6 [19] | 6.6 | –
